Test results: the supplement of paper PMC10307832

Experiments:
Assay in all cases: relative viability (nuclei count vs DMSO), 5 days (fraction); higher = more cells survive
[1] = compound: CC1CC(=O)N(C2=CN=C(N=C2N1C3CCCC3)NC4=C(C=C(C=C4)C(=O)NC5CCN(CC5)C)OC)C [NPK76-II-72-1] + Nc1ncn([C@H]2C[C@H](O)[C@@H](CO)O2)c(=O)n1 [Decitabine] (partner 2 µM)
How it was run: (§1)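 Five library-drug doses in √10 steps were combined with a fixed anchor-drug dose, or a single drug was given alone, by pin tool to lung cancer cell lines in 1536-well plates the day after seeding. Nuclei were stained and counted after 5 days. Relative viability is the nuclei count in treated wells over that in vehicle wells, taken as the median of duplicate plates.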

BI-2536 + Navitoclax = compound: CC[C@@H]1C(=O)N(C)c2cnc(Nc3ccc(C(=O)NC4CCN(C)CC4)cc3OC)nc2N1C1CCCC1 [BI-2536] + CC1(C)CCC(c2ccc(Cl)cc2)=C(CN2CCN(c3ccc(C(=O)NS(=O)(=O)c4ccc(N[C@H](CCN5CCOCC5)CSc5ccccc5)c(S(=O)(=O)C(F)(F)F)c4)cc3)CC2)C1 [Navitoclax] (partner 0.5 µM)
How it was run: as §1

BI-2536 + Decitabine = compound: CC[C@@H]1C(=O)N(C)c2cnc(Nc3ccc(C(=O)NC4CCN(C)CC4)cc3OC)nc2N1C1CCCC1 [BI-2536] + Nc1ncn([C@H]2C[C@H](O)[C@@H](CO)O2)c(=O)n1 [Decitabine] (partner 2 µM)
How it was run: as §1

[2] = compound: CC1CC(=O)N(C2=CN=C(N=C2N1C3CCCC3)NC4=C(C=C(C=C4)C(=O)NC5CCN(CC5)C)OC)C [NPK76-II-72-1] + COc1cc2c(Oc3ccc(NC(=O)C4(C(=O)Nc5ccc(F)cc5)CC4)cc3F)ccnc2cc1OCCCN1CCOCC1 [Foretinib] (partner 0.25 µM)
How it was run: as §1

Cell Line	relative viability ([1]; first compound 0.01 µM)	relative viability ([1]; first compound 0.03162 µM)	relative viability ([1]; first compound 0.1 µM)	relative viability ([1]; first compound 0.3162 µM)	relative viability ([1]; first compound 1 µM)	relative viability (BI-2536 + Navitoclax; first compound 0.01 µM)	relative viability (BI-2536 + Navitoclax; first compound 0.03162 µM)	relative viability (BI-2536 + Navitoclax; first compound 0.1 µM)	relative viability (BI-2536 + Navitoclax; first compound 0.3162 µM)	relative viability (BI-2536 + Navitoclax; first compound 1 µM)	relative viability (BI-2536 + Decitabine; first compound 0.01 µM)	relative viability (BI-2536 + Decitabine; first compound 0.03162 µM)	relative viability (BI-2536 + Decitabine; first compound 0.1 µM)	relative viability (BI-2536 + Decitabine; first compound 0.3162 µM)	relative viability (BI-2536 + Decitabine; first compound 1 µM)	relative viability ([2]; first compound 0.01 µM)	relative viability ([2]; first compound 0.03162 µM)	relative viability ([2]; first compound 0.1 µM)	relative viability ([2]; first compound 0.3162 µM)	relative viability ([2]; first compound 1 µM)
NCI-H2087	0.226	0.33	0.3	0.217	0.36	0.868	0.974	0.8	0.112	0.138	0.273	0.247	0.149	0.0727	0.0981	1.04	1.06	1.09	1.12	1.32
HCC-366	0.333	0.381	0.378	0.301	0.373	1.1	1.1	0.809	0.0109	0.0154	0.407	0.408	0.248	0.036	0.0402	0.929	0.953	0.906	0.944	0.951
NCI-H727	0.874	0.888	0.801	0.785	0.764	0.356	0.552	0.255	0.138	0.176	0.819	0.841	0.849	0.477	0.372	0.93	1.04	0.783	1.14	0.897
LU99A	0.897	0.833	0.75	0.928	0.916	0.811	0.86	0.323	0.108	0.132	0.796	1.02	0.717	0.198	0.25	0.774	0.765	0.936	0.503	0.979
NCI-H647	0.379	0.364	0.418	0.367	0.454	1.05	0.883	0.378	0.0407	0.0778	0.391	0.301	0.103	0.0938	0.135	1.12	1.19	1.35	1.04	1.19
HCC-78	0.711	0.696	0.549	0.699	0.653	0.772	0.708	0.635	0.344	0.144	0.678	0.692	0.694	0.363	0.331	0.561	0.549	0.489	0.507	0.616
NCI-H1755	0.738	0.712	0.75	0.735	0.694	1	0.909	0.903	0.152	0.127	0.689	0.716	0.642	0.347	0.379	0.968	0.916	0.883	0.893	0.917
NCI-H3122	0.361	0.431	0.471	0.424	0.438	1	0.991	0.525	0.233	0.241	0.386	0.508	0.392	0.151	0.159	0.93	1.01	0.902	0.866	0.958
PC-14	0.206	0.286	0.226	0.259	0.222	1.05	1.06	0.902	0.0528	0.0559	0.227	0.172	0.09	0.0445	0.0408	0.936	1.1	0.894	0.928	1.01
NCI-H2347	0.607	0.578	0.614	0.562	0.635	0.759	0.742	0.744	0.358	0.326	0.595	0.736	0.589	0.506	0.414	0.844	1.1	0.935	0.424	0.917
NCI-H1793	–	0.542	0.547	0.409	0.575	0.438	0.34	0.275	0.218	0.159	0.419	0.509	0.236	0.198	0.145	0.659	0.687	0.747	0.559	0.533
EKVX	0.329	0.353	0.34	–	0.387	0.786	0.874	1.02	0.15	0.114	0.303	0.333	0.288	0.164	0.169	0.428	0.878	0.773	0.3	1.15
HOP-62	0.202	0.238	0.222	0.208	0.203	1	1.08	0.967	0.0716	0.0536	0.201	0.209	0.231	0.151	0.142	1.06	1.27	0.993	1.15	1.08
NCI-H2126	0.57	0.554	0.569	0.516	0.538	0.847	0.843	0.75	0.328	0.25	0.547	0.591	0.492	0.247	0.244	1.47	1.23	0.916	1.14	1.17
SW 1573	0.508	0.579	0.51	0.649	0.505	1.04	1.05	1.05	0.0673	0.0547	0.473	0.257	0.095	0.0944	0.0866	0.997	1.02	0.914	0.963	0.824
EPLC-272H	0.407	0.387	0.371	0.379	0.37	1.13	0.999	–	0.0617	0.0715	0.359	0.363	0.258	0.0826	0.131	0.552	–	0.69	0.852	0.729

Cell Line	relative viability ([1]; first compound 0.01 µM)	relative viability ([1]; first compound 0.03162 µM)	relative viability ([1]; first compound 0.1 µM)	relative viability ([1]; first compound 0.3162 µM)	relative viability ([1]; first compound 1 µM)	relative viability (BI-2536 + Navitoclax; first compound 0.01 µM)	relative viability (BI-2536 + Navitoclax; first compound 0.03162 µM)	relative viability (BI-2536 + Navitoclax; first compound 0.1 µM)	relative viability (BI-2536 + Navitoclax; first compound 0.3162 µM)	relative viability (BI-2536 + Navitoclax; first compound 1 µM)	relative viability (BI-2536 + Decitabine; first compound 0.01 µM)	relative viability (BI-2536 + Decitabine; first compound 0.03162 µM)	relative viability (BI-2536 + Decitabine; first compound 0.1 µM)	relative viability (BI-2536 + Decitabine; first compound 0.3162 µM)	relative viability (BI-2536 + Decitabine; first compound 1 µM)	relative viability ([2]; first compound 0.01 µM)	relative viability ([2]; first compound 0.03162 µM)	relative viability ([2]; first compound 0.1 µM)	relative viability ([2]; first compound 0.3162 µM)	relative viability ([2]; first compound 1 µM)
PC-3 [JPC-3]	0.811	–	0.882	0.878	0.95	0.849	0.774	0.743	0.319	0.212	0.775	0.752	0.757	0.362	0.408	1.04	1.06	0.96	0.952	1.12
NCI-H838	0.495	0.458	0.455	0.466	0.476	1.11	1.2	0.634	0.164	0.146	0.445	0.413	0.185	0.151	0.142	0.956	0.99	1.1	0.949	1.09
COR-L 105	0.622	0.65	0.448	0.616	0.69	0.671	0.757	0.491	0.311	0.271	0.688	0.686	0.542	0.352	0.322	0.865	1.25	1.06	1.03	0.89
NCI-H2405	0.74	0.789	0.719	0.629	0.862	0.7	0.218	0.106	0.0606	0.116	0.721	0.662	0.387	0.307	0.392	1.05	1.08	0.999	1.03	1.17
NCI-H1395	0.758	0.619	0.628	0.693	0.753	1.01	0.635	0.732	0.42	0.467	0.628	0.509	0.366	0.337	0.345	1.02	0.959	0.954	1.1	0.95
NCI-H1915	0.256	0.257	0.27	0.261	0.278	0.781	0.765	0.694	0.11	0.0514	0.261	0.238	0.227	0.108	0.119	1.09	1.13	1.1	1.06	1.09
LXF-289	0.345	0.374	0.364	0.383	0.357	0.949	0.858	0.658	0.064	0.0512	0.382	0.376	0.363	0.0762	0.1	0.945	1.03	0.896	0.948	0.961
NCI-H460	0.432	0.492	0.521	0.455	0.47	1.19	1.05	0.0795	0.0095	0.0103	0.596	0.486	0.114	0.0205	0.0215	0.931	1.02	0.996	1.01	1.02
A549	0.429	0.332	0.327	0.233	0.312	1.38	1.07	0.0366	0.0423	0.0248	0.26	0.315	0.246	0.0414	0.0226	0.937	0.979	0.93	0.856	1.05
NCI-H1944	0.431	0.463	0.408	0.408	0.478	1.05	1.05	1.05	0.377	0.157	0.454	0.444	0.399	0.168	0.192	0.9	0.936	0.899	0.808	0.992
NCI-H2009	0.422	0.42	0.38	0.364	0.365	1.14	1.05	0.7	0.121	0.0887	0.4	0.337	0.324	0.193	0.169	0.843	1.25	1.22	1.21	1.23
201T	0.818	0.87	0.906	0.887	0.886	1.18	1.16	1.21	0.939	0.33	0.873	0.838	0.815	0.332	0.225	1.06	1.12	1.15	1.06	1.27
NCI-H23	0.31	0.315	0.264	0.405	0.306	0.894	0.632	0.567	0.192	0.127	0.3	0.364	0.244	0.155	0.168	0.955	0.88	0.954	0.99	0.973
LOU-NH91	0.794	0.849	0.793	0.735	0.875	0.673	0.53	0.648	0.316	0.261	0.816	0.685	0.66	0.343	0.383	0.871	0.933	0.948	0.795	1
NCI-H2085	0.543	0.519	0.517	0.472	0.611	1.04	1.13	0.704	0.208	0.272	0.629	0.484	0.484	0.301	0.303	0.792	0.923	0.902	0.781	1.15
COR-L23	0.423	0.473	0.469	0.384	0.454	0.883	0.792	0.358	0.0817	0.0706	0.424	0.359	0.149	0.104	0.13	0.915	0.977	1.01	0.9	0.979
